Data from paper PMC9976467, “Anti-Trypanosoma cruzi activity of Coptis rhizome extract and its constituents” (Tropical Medicine and Health, 2023).

Assays:
[1] = molecular target: T. cruzi Trypo + Ama (Luc2-Tulahuen); assay: In vitro anti-T. cruzi (trypomastigotes and amastigotes) mixture culture luciferase assay; type: cell-based, Trypanosoma cruzi; conditions: for IC50 / inhibition at 20 µM: Trypanosoma cruzi, TULAHUEN; for IC50: trypomastigotes mixed with NMH cells, 72 h; for reduction of parasite signals (inhibition in the T. cruzi mixture culture): first screen, compounds 20 μM (Fig. 1); for inhibition at 20 µM: read-out: reduction of parasite signals (inhibition in the T. cruzi mixture culture)
Experimental: Luc2-Tulahuen trypomastigotes (3 × 10^4/well) and NMH cells (5 × 10^4/well) were mixed into a 96-well white plate. Test samples and controls were added and incubated with the cells for 72 h. NP-40 (Wako Pure Chemicals Industrial Ltd, Japan) was used as the positive control, and a solvent in which the drug was dissolved as a negative. After 72 h of incubation, 100 μl of luciferin solution containing 0.6% NP-40 (Piccagene) (Toyo Ink Group, Japan) was added. Luminescence intensity was measured by a plate reader (ARVO MX 1420) (Measurement time: 1 s).
(§1) The IC50 was calculated using the following equation: IC50=10^logA/B×50-C/D-C+logB, where A is the lowest concentration at which the percentage inhibition exceeds 50%, B is the highest concentration at which percentage inhibition is less than 50%, and C and D are the percentage inhibition of the sample at concentrations B and A, respectively.

[2] = test system: T. cruzi Intracell Ama (Luc2-Tulahuen); assay: In vitro anti-T. cruzi (intracellular amastigotes) luciferase assay in NMH cells; type: cell-based, Trypanosoma cruzi; conditions: for loss of luminescence intensity in IC50 curve, in words: NMH cells with amastigotes (Supplement Figure 2); for IC50: Trypanosoma cruzi, TULAHUEN, infected NMH cells, 72 h
Experimental: The intracellular amastigotes assay was described by Alonso-Padilla et al.. Briefly, 6 × 10^6 trypomastigotes and 3 × 10^6 host cells (NMH cells) are seeded in a 25 cm^2 flask in serum-free media (MEM + 1% newborn calf serum) to enhance the intracellular infection. After 24 h incubation, the cells were washed twice with phosphate buffered saline (PBS), then replaced by MEM + 10% newborn calf serum and incubated for another 24 h. Infected cells were detached by trypsinization. Infected host fibroblast cells (5 × 10^4/well) were seeded into a 96-well plate. Test samples and the controls were added to the mixture and incubated for 72 h. Luminescence intensity was measured by a plate reader and the Piccagene (Measurement time: 1 s).
as §1

[3] = Cytotoxicity, alamarBlue viability, NMH cells; type: cell-based, mouse; conditions: mouse
Experimental: (§2) NMH cells or HuH28 cells (1 × 10^4/well) of 100 μl aliquots were seeded on a 96-well black plate. Test samples were added and incubated for 72 h. NP-40 was added as a positive control (100% cytotoxicity) and a solvent in which the samples were dissolved as a negative control (0% cytotoxicity). Then 10 μl of alamarBlue reagent (10%, Funakoshi Co., Tokyo, Japan) for mitochondria staining was added and incubated for another 4 h. The fluorescence intensity (544 nm/590 nm) was measured with a plate reader (measurement time: 0.1 s).
as §1, with “concentration required to reduce cell viability by 50% (CC50)” for “IC50”, “CC50=10^logA/B×50-C/D-C+logB,” for “IC50=10^logA/B×50-C/D-C+logB,”, “cell viability” for “percentage inhibition”

[4] = Cytotoxicity, alamarBlue viability, HuH28 cells; type: cell-based; conditions: human
Experimental: as §2
as §1, with “concentration required to reduce cell viability by 50% (CC50)” for “IC50”, “CC50=10^logA/B×50-C/D-C+logB,” for “IC50=10^logA/B×50-C/D-C+logB,”, “cell viability” for “percentage inhibition”

[5] = test system: T. cruzi Epi (Luc2-Tulahuen epimastigotes); assay: In vitro assay for anti-epimastigote form of T. cruzi activity (luciferase); type: cell-based, Trypanosoma cruzi; conditions: for IC50: Trypanosoma cruzi, TULAHUEN, epimastigotes, 72 h
Experimental: Luc2-Tulahuen epimastigotes (2 × 10^5/well) were dispensed into 96-well plate. After 72 h incubation, luminescence intensity was measured by adding lysis buffer with luciferin as substrate (PicaGene Luminescence Kit, Fuji Film Wako chemicals, Japan) (Measurement time: 1 s).
as §1

[6] = test system: NMH cells (newborn mouse heart fibroblast cells); assay: Cytotoxicity, alamarBlue viability, NMH cells; type: cell-based
Experimental: as §2
as §1, with “concentration required to reduce cell viability by 50% (CC50)” for “IC50”, “CC50=10^logA/B×50-C/D-C+logB,” for “IC50=10^logA/B×50-C/D-C+logB,”, “cell viability” for “percentage inhibition”

[7] = test system: T. cruzi (Luc2-Tulahuen trypomastigotes); assay: Murine acute infection model with live bioluminescence imaging; type: in vivo, BALB/c mice; conditions: for luminescence intensity / parasiticidal activity compared with benznidazole group: 30 mg/kg bid i.p. vs benznidazole 100 mg/kg p.o., day 4 to 8
Experimental: Mice were housed and maintained in Nagasaki University Biomedical Research Center (12 h light/dark cycle). Female BALB/c mice from 6 to 10 weeks old (20–25 g) were used in all the experiments. Mice were obtained as wild type from SLC (Japan). In standard experiments, 5 × 10^3 in vitro tissue culture-derived trypomastigotes (TCTs) was intra-peritoneally (i.p.) inoculated into mouse. The mice were handled according to the international guidelines and institutional guideline of Nagasaki University for the use and maintenance of experimental animals. Ethical approval for this study was obtained from the institutional ethical review board, Nagasaki University (approval number R12005).
Mice were intra-peritoneally injected with 150 mg/kg d-luciferin (SYD labs, USA), then anesthetized using 2.5% (vol/vol) gaseous isoflurane in oxygen. To measure bioluminescence, mice were placed in an IVIS Lumina II system (Caliper Life Science, USA) and images were acquired 10 min after d-luciferin administration using LivingImage 4.3 (Caliper Life Sciences, USA). Exposure time was fixed as 5 min. Anesthesia was maintained throughout the imaging process through the nose cone. Whole body luminescence was determined by drawing the region of interest (ROI) and quantifying the bioluminescence expressed as total flux (photons/second; p/s). Coptisine chloride was administered intra-peritoneally (i.p.) at a dose of 30 mg/kg twice a day. Benznidazole (100 mg/kg) as a positive control and the drug solvent as a negative control were administered orally (p.o.) once a day. Drug was administered for 5 consecutive days from day 4 to 8 of infection. Measurements with IVIS Lumina II were performed at five different times: on day 3 of infection (the day before drug treatment), on day 9 of infection (the day after drug treatment was completed), on day 14, 28 and 40 of infection. To maintain fairness, different experimenters performed drug treatments and luminescence intensity measurements. At day 29, BALB/c mice were injected with cyclophosphamide (Sigma-Aldrich, USA) (200 mg/kg) as an immunosuppressant by i.p. and were followed by a maximum of 3 doses at 3 day intervals. The use of immunosuppressant like cyclophosphamide could help enhance the visibility of the infected lesions even after 100 dpi. In this animal study, treatment was given when the luminescence intensity was high. In addition, an immunosuppressant was administered when the difference in luminescence intensity among the three groups became small due to natural immunity of the mice.

[8] = test system: mouse fibroblast cells (NMH) and human bile duct carcinoma cell line (HuH28); assay: Cytotoxicity screen of Kampo library on host cells (alamarBlue); type: cell-based; conditions: compounds 20 μM (Fig. 2)
Source text: Data are presented as percent reduction in intensity, indicating cell viability. Experiments were done in triplicates

[9] = test system: DHODH in Plasmodium falciparum; design: method as in PMID 29582555; conditions: cited from earlier work
human DHODH = test system: human DHODH; design: method as in PMID 29582555; conditions: cited from earlier work
[10] = in vivo; cited from earlier work
[11] = NMH cells (newborn mouse heart fibroblast cells), 72 h, read-out: CC50, NMH, AlamarBlue viability
[12] = HuH28 cells (human bile duct carcinoma cell line), 72 h, read-out: CC50, HuH28, AlamarBlue viability

c1cc2c(c3c1CC1c4cc5c(cc4CCN1C3)OCO5)OCO2 (racemic) [dl-Tetrahydro coptisine]
loss of luminescence intensity in IC50 curve, in words ([1]; NMH cells and trypomastigotes (Supplement Figure 1)): No loss of intensity
IC50 [1]: > 40 µM
loss of luminescence intensity in IC50 curve, in words [2]: No loss of intensity
IC50 [2]: > 40 µM
CC50 at 72 h [3, 11]: > 40 µM
CC50 at 72 h [4, 12]: > 100 µM

CC(C)=CC[C@H](O)C1=CC(=O)c2c(O)ccc(O)c2C1=O [Alkanin]
reduction of parasite signals (inhibition in the T. cruzi mixture culture) [1]: more than 80%

O=C(Cn1ccnc1[N+](=O)[O-])NCc1ccccc1 [Benznidazole, reference compound]
IC50 [1]: 2.78 µM
IC50 [2]: 4.91 µM
IC50 [5]: 3.78 µM
CC50 at 72 h [3]: > 40 µM
CC50 at 72 h [4]: > 100 µM

COc1ccc2cc3[n+](cc2c1OC)CCc1cc2c(cc1-3)OCO2.[Cl-] [Berberin chloride]
reduction of parasite signals (inhibition in the T. cruzi mixture culture) [1]: more than 80%

COc1ccc2cc3[n+](cc2c1O)CCc1cc2c(cc1-3)OCO2 [Berberrubine chloride]
IC50 [1]: 20.1 µM
IC50 [2]: 33.5 µM
CC50 at 72 h [3]: > 40 µM
cytotoxic effect against normal NMH cells, in words [6]: slight cytotoxic effect
CC50 at 72 h [4]: > 100 µM

c1c2c(cc3c1OCO3)-c1cc3ccc4c(c3c[n+]1CC2)OCO4 [Coptisine chloride]
inhibition at 20 µM [1]: > 80%
IC50 [1]: 4.48 µM
IC50 [2]: 4.98 µM
IC50 [5]: 15.1 µM
effectiveness against epimastigotes relative to benznidazole ([5]; from IC50 15.1 µM vs 3.78 µM): fourfold less effective
CC50 at 72 h [3, 11]: > 40 µM
CC50 at 72 h [4, 12]: > 100 µM
relapse detected on day 40 after immunosuppressant ([7]; 30 mg/kg bid i.p. day 4 to 8, compared with benznidazole 100 mg/kg p.o.): smaller than that in the benznidazole treatment group
luminescence intensity after immune suppression treatment compared with control group ([7]; 30 mg/kg bid i.p. day 4 to 8, day 40, after cyclophosphamide): significantly reduced
luminescence intensity / parasiticidal activity compared with benznidazole group ([7]; listed as coptisine): equivalent parasiticidal activity
luminescence intensity / parasiticidal activity compared with benznidazole group ([7]; listed as coptisine chloride): slightly higher than that of the benznidazole group
luminescence intensity of treated group compared with untreated group ([7]; 30 mg/kg bid i.p., day 4 to 8 of infection, after 5-day treatment): significantly reduced
adverse events during in vivo experiment ([7]; BALB/c mice, 30 mg/kg bid i.p.): did not see any significant adverse events
cytotoxic effect on host cells, in words [8]: relatively lower cytotoxicity
inhibition of DHODH in Plasmodium falciparum, in words [9]: non-competitively inhibits
inhibitory activity against human DHODH, in words (human DHODH): weak inhibitory activity
oral bioavailability, in words [10]: low

COc1cc2c(cc1OC)-c1c(C)c3ccc(OC)c(OC)c3c[n+]1CC2 [Dehydrocorydaline nitrate]
inhibition at 20 µM [1]: > 80%
IC50 [1]: 3.47 µM
IC50 [2]: 7.89 µM
IC50 [5]: 17.3 µM
CC50 at 72 h [3]: > 40 µM
CC50 at 72 h [4]: > 100 µM
cytotoxic effect on host cells, in words [8]: relatively lower cytotoxicity

COc1cc2c(cc1OC)-c1cc3ccc4c(c3c[n+]1CC2)OCO4 [Epiberberine chloride]
IC50 [1]: > 40 µM
loss of luminescence intensity in IC50 curve, in words [2]: No loss of intensity
IC50 [2]: > 40 µM
CC50 at 72 h [3]: > 40 µM
CC50 at 72 h [4]: > 100 µM

COc1cc2c(cc1OC)-c1cc3ccc(OC)c(OC)c3c[n+]1CC2 [Palmatine chloride]
inhibition at 20 µM [1]: > 80%
IC50 [1]: 2.66 µM
IC50 [2]: 17.4 µM
IC50 [5]: 22.3 µM
CC50 at 72 h [3, 11]: > 40 µM
CC50 at 72 h [4, 12]: > 100 µM
cytotoxic effect on host cells, in words [8]: relatively lower cytotoxicity

CC(C)=CC[C@@H](O)C1=CC(=O)c2c(O)ccc(O)c2C1=O [Shikonin]
inhibition at 20 µM [1]: > 80%

C[C@H]1CC[C@@]2(OC1)O[C@H]1C[C@H]3[C@@H]4CC[C@@H]5C[C@@H](O[C@@H]6O[C@H](CO)[C@H](O)[C@H](O)[C@H]6O[C@@H]6O[C@H](CO)[C@@H](O)[C@H](O)[C@H]6O)CC[C@]5(C)[C@H]4CC[C@]3(C)[C@H]1[C@@H]2C [Timosaponin A-III]
inhibition at 20 µM [1]: > 80%
